# Measured values as given in patent US20080207900A1, “TWO CYCLIC OXOMORPHORIN DERIVATIVES” (priority 2007, published 2008).
# Test system: Aβ42 production
# Assay: Quantitation of Aβ peptide in neuronal cell culture derived from a rat fetal brain (Aβ ELISA)
# Assay type: cell-based
# Settings: rat primary neuronal cell culture (cerebral cortex, 18-day embryos); medium recovered 3 days after adding the compound; Aβx-42 ELISA; test concentration not given
# Source text: Quantitation of Aβ Peptide in Neuronal Cell Culture Derived from a Rat Fetal Brain.
# The cerebral cortex was isolated from 18-day embryos of Wister rats (Charles River Japan, Yokohama, Japan) and cultured. More specifically, under ether anesthesia, embryos were aseptically resected from pregnant rats. The brains were resected from the embryos and placed in an ice cold L-15 medium (Invitrogen Corp. Cat. #11415-064, Carlsbad, Calif., USA or SIGMA L15181 and the like). From the resected brains, the cerebral cortex was collected under a stereoscopic microscope. The collected pieces of the cerebral cortex were treated in an enzyme solution containing 0.25% trypsin (Invitrogen Corp. Cat. #15050-065, Carlsbad, Calif. USA) and 0.01% DNase (Sigma D5025, St. Louis, Mo., USA) at 37° C. for 30 minutes to disperse cells. Then, the enzyme reaction was stopped by adding inactivated horse serum. The resultant enzyme treatment solution was centrifuged at 1500 rpm for 5 minutes to remove the supernatant. A medium (5-10 ml) was added to the obtained cell aggregates. The medium used was Neurobasal medium (Invitrogen Corp. Cat. #21103-049, Carlsbad, Calif., USA) added with 2% B27 supplement (Invitrogen Corp. Cat #17504-044, Carlsbad, Calif. USA), 25 μM 2-mercaptoethanol (2-ME, WAKO Cat. #139-06861, Osaka, Japan), 0.5 mM L-glutamine (Invitrogen Corp. Cat. #25030-081, Carlsbad, Calif., USA) and Antibiotics-Antimycotics (Invitrogen Corp. Cat. #15240-062, Carlsbad, Calif., USA) (Neurobasal/B27/2-ME). However, a media without 2-ME (Neurobasal/B27) was used when an assay was carried out. The cell aggregates mixed with the medium were pipetted gently to re-disperse the cells. The resultant cell dispersion was filtered through a 40 μm nylon mesh (cell strainer, Cat. #. 35-2340, Becton Dickinson Labware, Franklin Lakes, N.J., USA) to obtain a neuronal cell suspension by removing cell aggregates. The resultant neuronal cell suspension was diluted with the medium and seeded into poly-L or D-lysine coated 96 well polystyrene culture vessels (Falcon Cat. #. 35-3075, Becton Dickinson Labware, Franklin Lakes, N.J., USA, coated with poly-L-lysine by a following method or BIOCOAT™πcell environments Poly-D-lysine cell ware 96-well plate, Cat. #. 35-6461, Becton Dickinson Labware, Franklin Lakes, N.J., USA) at 100 μL/well so that the initial cell density was 5×10^5 cells/cm^2. The poly-L-lysine coating was carried out as follows. Using 0.15 M Borate buffer (SIGMA P2636, St. Louis, Mo., USA) solution was aseptically prepared. The resultant solution was added to 96 well polystyrene culture vessels at […] and incubated at room temperature for 1 hour or longer or at 4° C. overnight or longer. Then the coated 96 well polystyrene culture vessels were washed with sterilized water 4 times or more, dried or rinsed with sterilized PBS or the medium and used for seeding the cells. After culturing the seeded cells were incubated at 37° C. in an incubator under a 5% CO2-95% air for 1 day, the whole medium was replaced with fresh Neurobasal/B27/2-ME medium, and the incubation was continued for 3 days.
# At day 4 of culturing, drugs were added as follows. The whole medium was withdrawn and Neurobasal medium containing 2% B-27 but no 2-ME (Neurobasal/B27) was added to the well at 180 μL/well. A dimethylsulfoxide (hereinafter abbreviated as DMSO) solution of a test compound was diluted with Neurobasal/B27 to a 10 times concentration of the final concentration. The resultant diluted solution was added to the well at 20 μL/well and mixed well. The final DMSO concentration was to be 1% or less. Only DMSO was added to the control group.
# After culturing 3 days after adding the compound, the whole medium was recovered. The medium thus obtained was used as ELISA samples. For Aβx-42 measurement, no dilution was made but for Aβx-40 measurement, samples were diluted 5 folds with the diluent attached to the ELISA kit to be subjected to the ELISA tests. […]
row,SMILES,Aβ42 production reducing activity
1,"COc1cc(/C=C2\O[C@@H](C)[C@H]3CC[C@@H](c4ccc(Cl)cc4)N3C2=O)ccc1-n1cnc(C)c1 [Example 9, (Z)-(1S,6S,8aR)-6-(4-chlorophenyl)-3-[3-methoxy-4-(4-methylimidazol-1-yl)benzylidene]-1-methyltetrahydropyrrolo[2,1-c][1,4]oxazin-4-one]",95 % of CTRL
2,"COc1cc(/C=C2\OC(C)(C)[C@H]3CC[C@@H](c4cc(F)c(F)c(F)c4)N3C2=O)ccc1-n1cnc(C)c1 [Example 11, (Z)-(6S,8aR)-3-[3-methoxy-4-(4-methylimidazol-1-yl)benzylidene]-1,1-dimethyl-6-(3,4,5-trifluorophenyl)tetrahydropyrrolo[2,1-c][1,4]oxazine-4 one]",67 % of CTRL
3,"COc1cc(/C=C2\O[C@@H](C)[C@H]3CC[C@@H](c4cc(F)c(F)c(F)c4)N3C2=O)ccc1-n1cnc(C)c1 [Example 12, (Z)-(1S,6S,8aR)-3-[3-Methoxy-4-(4-methylimidazol-1-yl)benzylidene]-1-methyl-6-(3,4,5-trifluorophenyl)tetrahydropyrrolo[2,1-c][1,4]oxazin-4-one]",91 % of CTRL
4,COc1cc(/C=C2\OC(C)(C)[C@H]3COC[C@@H](c4cc(F)c(F)c(F)c4)N3C2=O)ccc1-n1cnc(C)c1 [Example 19],42 % of CTRL
5,"COc1cc(/C=C2\O[C@@H](C)[C@H]3CCC[C@@H](c4cc(F)c(F)c(F)c4)N3C2=O)ccc1-n1cnc(C)c1 [Example 17, (Z)-(1S,6S,9aR)-3-[3-methoxy-4-(4-methylimidazol-1-yl)benzylidene]-1-methyl-6-(3,4,5-trifluorophenyl)hexahydropyrido[2,1-c][1,4]oxazin-4-one]",53 % of CTRL
6,"COc1cc(/C=C2\OC(C)(C)[C@H]3CC[C@@H](c4ccc(Cl)cc4)N3C2=O)ccc1-n1cnc(C)c1 [Example 8, (Z)-(6S,8aR)-6-(4-chlorophenyl)-3-[3-methoxy-4-(4-methylimidazol-1-yl)benzylidene]-1,1-dimethyltetrahydropyrrolo[2,1-c][1,4]oxazin-4-one]",74 % of CTRL
7,"COc1cc(/C=C2\O[C@@H](C)[C@H]3COC[C@@H](c4cc(F)c(F)c(F)c4)N3C2=O)ccc1-n1cnc(C)c1 [Example 2, (Z)-(1S,6R,9aR)-3-[3-methoxy-4-(4-methylimidazol-1-yl)benzylidene]-1-methyl-6-(3,4,5-trifluorophenyl)tetrahydro-[1,4]oxazino[3,4-c][1,4]oxazin-4-one]",52 % of CTRL
